One block for each compound: values may come before it. Activity calls are given as the source filed them. No cut-off for these calls is given here.
Tests used:
[1] = molecular target: T1, Glycogen synthase kinase-3 beta (Homo sapiens, UniProt P49841); assay: Inhibition of human recombinant GSK-3beta using GS2 peptide as substrate and [gamma33P]-ATP at 50 uM after 30 mins by scintillation counting
Target sequence in this assay (P49841 whole entry, looked up): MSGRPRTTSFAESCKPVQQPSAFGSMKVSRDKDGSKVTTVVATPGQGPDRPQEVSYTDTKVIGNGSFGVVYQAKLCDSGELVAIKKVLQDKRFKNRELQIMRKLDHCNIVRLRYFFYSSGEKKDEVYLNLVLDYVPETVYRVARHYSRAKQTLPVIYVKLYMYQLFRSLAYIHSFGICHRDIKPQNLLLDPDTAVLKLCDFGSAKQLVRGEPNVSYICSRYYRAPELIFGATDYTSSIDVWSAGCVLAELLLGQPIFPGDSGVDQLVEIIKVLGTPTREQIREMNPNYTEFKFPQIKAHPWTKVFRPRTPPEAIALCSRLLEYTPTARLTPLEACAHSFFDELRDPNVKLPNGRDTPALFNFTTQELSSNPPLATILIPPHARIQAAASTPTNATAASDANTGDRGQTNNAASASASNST

[2] = molecular target: T1, Glycogen synthase kinase-3 beta; assay: Inhibition of human recombinant GSK-3beta using GS2 peptide as substrate and [gamma33P]-ATP after 30 mins by scintillation counting
Target sequence in this assay (P49841 whole entry): as the sequence (P49841 whole entry, looked up) above

[3] = molecular target: T1, Glycogen synthase kinase-3 beta; details: SH-SY5Y, 15 to 200 uM
Target sequence in this assay (P49841 whole entry, looked up): as above
Description: Inhibition of GSK-3beta in human SH-SY5Y cells assessed as reduction of tau phosphorylation at 15 to 200 uM after 18 hrs by ELISA sandwich method

Casein kinase II [4] = molecular target: Casein kinase II (Homo sapiens, UniProt P19784+P67870+P68400); assay: (§1) Inhibition of human recombinant CK2 using GS2 peptide as substrate and [gamma33P]-ATP after 30 mins by scintillation counting; format: protein-complex assay
Casein kinase II [5] = molecular target: Casein kinase II (Homo sapiens, UniProt P67870+P68400+P19784); assay: as §1; format: protein-complex assay
[6] = molecular target: Cyclin-dependent kinase 1 (Homo sapiens, UniProt P06493); assay: Inhibition of human recombinant CDK1 using histone H1 as substrate and [gamma33P]-ATP after 15 mins by scintillation counting
[7] = molecular target: Glycogen synthase kinase-3 alpha (Homo sapiens, UniProt P49840); assay: Inhibition of human recombinant GSK-3alpha using GS2 peptide as substrate and [gamma33P]-ATP after 12 mins by scintillation counting
[8] = molecular target: Cyclin-dependent kinase 5 (Homo sapiens, UniProt Q00535); assay: Inhibition of human recombinant CDK5 using histone H1 as substrate and [gamma33P]-ATP after 20 mins by scintillation counting
[9] = Inhibition of human recombinant MAPK using […] as substrate and [gamma33P]-ATP after 15 mins by scintillation counting
[10] = Cytotoxicity against human SH-SY5Y cells assessed as intracellular LDH level after 18 hrs; format: cell-based

Cyclin-dependent kinase 5, sequence (Q00535 whole entry): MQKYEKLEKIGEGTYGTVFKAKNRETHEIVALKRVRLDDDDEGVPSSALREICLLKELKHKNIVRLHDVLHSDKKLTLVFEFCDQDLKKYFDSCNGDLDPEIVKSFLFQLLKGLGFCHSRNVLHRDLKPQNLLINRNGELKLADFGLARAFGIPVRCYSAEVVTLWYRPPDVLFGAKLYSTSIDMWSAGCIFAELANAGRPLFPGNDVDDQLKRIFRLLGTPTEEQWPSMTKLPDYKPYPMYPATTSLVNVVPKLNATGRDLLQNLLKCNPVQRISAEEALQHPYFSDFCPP
Cyclin-dependent kinase 1, sequence (P06493 whole entry): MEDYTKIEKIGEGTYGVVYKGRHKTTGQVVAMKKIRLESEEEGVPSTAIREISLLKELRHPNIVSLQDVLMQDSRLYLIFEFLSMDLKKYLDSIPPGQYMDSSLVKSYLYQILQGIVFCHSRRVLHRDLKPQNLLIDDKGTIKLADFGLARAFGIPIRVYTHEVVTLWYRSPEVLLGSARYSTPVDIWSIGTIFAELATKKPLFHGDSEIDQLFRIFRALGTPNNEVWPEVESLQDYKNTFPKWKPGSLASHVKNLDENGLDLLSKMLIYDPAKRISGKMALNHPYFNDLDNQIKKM
Glycogen synthase kinase-3 alpha, sequence (P49840 whole entry): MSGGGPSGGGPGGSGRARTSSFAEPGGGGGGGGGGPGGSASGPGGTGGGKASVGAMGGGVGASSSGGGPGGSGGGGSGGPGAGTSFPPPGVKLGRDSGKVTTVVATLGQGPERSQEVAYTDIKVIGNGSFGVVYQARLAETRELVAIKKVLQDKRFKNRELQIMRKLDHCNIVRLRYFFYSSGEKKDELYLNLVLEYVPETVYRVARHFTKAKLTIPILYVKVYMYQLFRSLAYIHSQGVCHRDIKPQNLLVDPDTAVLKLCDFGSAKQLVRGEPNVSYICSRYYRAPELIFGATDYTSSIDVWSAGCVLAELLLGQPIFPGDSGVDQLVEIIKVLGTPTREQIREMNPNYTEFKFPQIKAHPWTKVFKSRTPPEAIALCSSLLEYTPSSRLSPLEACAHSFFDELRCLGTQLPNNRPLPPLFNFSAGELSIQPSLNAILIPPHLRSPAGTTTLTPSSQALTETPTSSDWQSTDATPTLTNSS
Casein kinase II (Homo sapiens, UniProt P67870+P68400+P19784), sequence (P67870 whole entry): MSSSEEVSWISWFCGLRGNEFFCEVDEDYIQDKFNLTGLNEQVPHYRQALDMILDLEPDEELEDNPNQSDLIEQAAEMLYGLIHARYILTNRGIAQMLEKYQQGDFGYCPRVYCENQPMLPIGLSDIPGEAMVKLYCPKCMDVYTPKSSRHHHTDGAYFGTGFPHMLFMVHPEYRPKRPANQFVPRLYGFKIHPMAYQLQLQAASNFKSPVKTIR
Casein kinase II (Homo sapiens, UniProt P67870+P68400+P19784), sequence (P68400 whole entry): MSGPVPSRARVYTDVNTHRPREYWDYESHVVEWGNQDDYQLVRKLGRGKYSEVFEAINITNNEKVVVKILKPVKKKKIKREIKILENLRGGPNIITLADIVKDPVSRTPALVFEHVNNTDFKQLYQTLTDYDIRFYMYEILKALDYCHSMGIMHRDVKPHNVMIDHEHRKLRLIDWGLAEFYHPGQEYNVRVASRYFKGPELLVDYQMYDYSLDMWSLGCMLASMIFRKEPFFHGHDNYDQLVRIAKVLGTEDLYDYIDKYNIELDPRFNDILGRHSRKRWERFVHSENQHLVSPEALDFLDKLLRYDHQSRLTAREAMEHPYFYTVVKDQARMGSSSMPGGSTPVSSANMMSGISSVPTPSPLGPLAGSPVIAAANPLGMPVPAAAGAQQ
Casein kinase II (Homo sapiens, UniProt P67870+P68400+P19784), sequence (P19784 whole entry): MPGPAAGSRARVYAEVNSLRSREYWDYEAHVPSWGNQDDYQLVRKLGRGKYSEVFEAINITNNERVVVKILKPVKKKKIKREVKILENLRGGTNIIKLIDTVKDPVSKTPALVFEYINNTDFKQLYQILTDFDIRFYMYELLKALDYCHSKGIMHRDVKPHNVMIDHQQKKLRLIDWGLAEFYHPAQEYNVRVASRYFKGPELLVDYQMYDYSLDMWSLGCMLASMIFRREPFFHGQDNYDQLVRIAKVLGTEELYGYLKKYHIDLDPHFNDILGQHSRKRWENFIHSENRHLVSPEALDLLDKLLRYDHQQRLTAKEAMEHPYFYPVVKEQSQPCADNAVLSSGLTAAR
Casein kinase II (Homo sapiens, UniProt P19784+P67870+P68400), sequence (P67870 whole entry): as the sequence (P67870 whole entry) above
Casein kinase II (Homo sapiens, UniProt P19784+P67870+P68400), sequence (P68400 whole entry): as the sequence (P68400 whole entry) above
Casein kinase II (Homo sapiens, UniProt P19784+P67870+P68400), sequence (P19784 whole entry): as the sequence (P19784 whole entry) above

- inhibition [1]: 86%
- IC50 ([2]; read-out: IC50): 6.1 µM
Compound: CCCCCCCCCC(=O)OC[C@H](O)[C@H]1OC(=O)C(O)=C1O

- inhibition [1]: 65%
- IC50 ([2]; read-out: IC50): > 50 µM
- IC50 ([2]; read-out: pIC50 (converted)): > 50.1 µM
Compound: CCCCCCCC(=O)OC[C@H](O)[C@H]1OC(=O)C(O)=C1O

- IC50 ([2]; read-out: IC50): > 5.8 µM
- IC50 ([2]; read-out: pIC50 (converted)): 5.75 µM
Compound: CCCCCCCCCCCCCC(=O)OC[C@H](O)[C@H]1OC(=O)C(O)=C1O

- inhibition [1]: 80%
Compound: O=C1O[C@H]([C@@H](O)CO)C(O)=C1O

- inhibition [3]: Active
Compound: CC1=C(O)[C@@H](C/C(C)=C/CCC(C)/C=C/C=C(\C)CCCc2ccoc2)OC1=O (stereo in doubt; A)

- IC50 (Casein kinase II [4]): > 100 µM
- IC50 (Casein kinase II [5]): > 100 µM
- IC50 ([6]; read-out: IC50): > 100 µM
- IC50 ([6]; read-out: pIC50 (converted)): > 100 µM
- IC50 [7]: 1.6 µM
- IC50 ([8]; read-out: IC50): > 25 µM
- IC50 ([8]; read-out: pIC50 (converted)): > 25.1 µM
- IC50 [9]: > 100 µM
- pIC50 [9]: < 4
- IC50 ([2]; read-out: IC50): 2.6 µM
Compound: CC1=C(O)[C@@H](C/C(C)=C/CCC(C)/C=C/C=C(\C)CCCc2ccoc2)OC1=O (stereo in doubt; A) [PALINURIN]

- inhibition [3]: Active
Compound: CC1=C(O)[C@@H](C/C(C)=C/CCC(C)/C=C/C=C(\C)CCCc2ccoc2)OC1=O (stereo in doubt; B)

- IC50 ([2]; read-out: IC50): 1.9 µM
Compound: CC1=C(O)[C@@H](C/C(C)=C/CCC(C)/C=C/C=C(\C)CCCc2ccoc2)OC1=O (stereo in doubt; B) [PALINURIN]
- Activity [10]: Non-toxic

- IC50 ([2]; read-out: IC50): 0.8 µM
Compound: CC1=C(O)/C(=C/[C@H](C)CCC/C(C)=C/CCc2coc(Cc3ccoc3)c2)OC1=O [IRCININ 1]

- IC50 ([2]; read-out: IC50): 2.3 µM
Compound: CC1=C(O)/C(=C/[C@H](C)CC/C=C(/C)CCCc2coc(Cc3ccoc3)c2)OC1=O [IRCININ 2]

Source: ChEMBL document CHEMBL2311349, “Evidence for a new binding mode to GSK-3: allosteric regulation by the marine compound palinurin” (Eur J Med Chem, 2013)
